Patent US20110178168A1, “COUMARIN COMPOUNDS FOR THE TREATMENT OF CARDIOVASCULAR DISEASES AND A PROCESS FOR PREPARING THE SAME” (priority 2008, published 2011)

How the values were obtained:
[1] = system: intracellular nitric oxide level in platelets; assay: Enhancement of nitric oxide in platelets; type: cell-based
Excerpt: Nitric oxide is known to mediate a number of pharmacological actions such as vasorelaxation, lowereing of blood pressure and inhibition of platelet aggregation. […] The specific acyl group attached to the coumarin derivative is attributed to the enhancement of intracellular nitric oxide level leading to the inhibition of ADP induced platelet aggregation.
(§1) Platelet Nitric Oxide Synthase (NOS) is remakably activated by way of acetylation catalyzed by Calreticulin transacetylase (CRTAase) leading to robust enhancement of NO in platelets. Compounds of Formula I enhance NO in platelets. Due to this activity, these compounds enhance the NOS leading to enhancement of platelet NO which contributes to the antiplatelet action. […] They are effective in causing the inhibition of ADP induced as well as collagen induced platelet aggregation both invitro and exvivo.

[2] = molecular target: T1, Calreticulin transacetylase (CRTAase) (Homo sapiens, UniProt P27797); assay: TAase (calreticulin transacetylase) activity; type: biochemical
T1 sequence (P27797 18-417): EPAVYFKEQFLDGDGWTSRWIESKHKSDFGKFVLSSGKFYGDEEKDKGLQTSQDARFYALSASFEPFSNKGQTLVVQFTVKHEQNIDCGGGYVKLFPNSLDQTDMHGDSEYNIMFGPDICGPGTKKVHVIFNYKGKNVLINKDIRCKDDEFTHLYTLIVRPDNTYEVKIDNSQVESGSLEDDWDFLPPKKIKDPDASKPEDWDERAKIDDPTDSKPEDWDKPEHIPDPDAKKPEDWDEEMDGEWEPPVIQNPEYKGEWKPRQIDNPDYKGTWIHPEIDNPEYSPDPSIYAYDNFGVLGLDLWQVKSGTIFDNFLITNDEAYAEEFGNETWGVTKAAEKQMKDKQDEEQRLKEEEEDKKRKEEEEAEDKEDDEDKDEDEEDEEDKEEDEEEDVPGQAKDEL
Excerpt: as §1

platelets [3] = assay: ADP-induced platelet aggregation in vitro (platelet rich plasma); type: cell-based
Excerpt: A. Preparation of Platelet Rich, Plasma for the IN VITRO Studies

platelets [4] = assay: ADP-induced platelet aggregation ex vivo (platelet rich plasma); type: in vivo
Excerpt: C. Preparation of Platelet Rich Plasma for the EX VIVO Studies

SMILES	Enhancement of nitric oxide (folds) [1]	TAase activity (Units) [2]	ADP-induced platelet aggregation (% inhibition) IN VITRO (platelets [3])	ADP-induced platelet aggregation (% inhibition) EX VIVO (platelets [4])
COC(=O)C(c1ccccc1Cl)N1CCc2sccc2C1 (centres unmarked)	Nil	Nil	Nil	65%
CC(=O)Oc1ccccc1C(=O)O [ASPIRIN, Aspirin]	Nil	Nil	Nil	55%
